Here are results for 23 molecules from patent US9000175B2, “Bicyclic GPR119 modulators” (Lupin Limited, priority 2010, dated 2015).

The EC50 is the concentration that produces a half-maximal response.

Where “and” joins values, the source holds several entries; their conditions need not be identical. Equal entries are not always repeated.

One test deals with T1, human GPR119 (Homo sapiens, UniProt Q8TDV5).
T1 construct: expressed in transfected cells
T1 sequence (Q8TDV5 1-335): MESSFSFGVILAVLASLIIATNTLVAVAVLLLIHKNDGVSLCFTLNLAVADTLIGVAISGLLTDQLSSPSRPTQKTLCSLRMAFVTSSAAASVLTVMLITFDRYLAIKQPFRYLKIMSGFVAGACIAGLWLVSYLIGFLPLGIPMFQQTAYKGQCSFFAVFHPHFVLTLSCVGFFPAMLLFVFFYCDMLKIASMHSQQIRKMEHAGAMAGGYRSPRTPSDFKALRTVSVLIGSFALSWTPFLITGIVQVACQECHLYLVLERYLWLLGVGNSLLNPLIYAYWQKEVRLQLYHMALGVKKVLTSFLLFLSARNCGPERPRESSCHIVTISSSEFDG
Put plainly: Cyclic AMP assay in stable cell line. Type of test: cell-based. The note with it: CHO-K1 cells stably transfected with human GPR119; cAMP levels (FRET, cAMP femto kit); 1 h at 37° C; read-out: EC50 Range. The protocol: Cyclic AMP Assay in Stable Cell Line:
Chinese Hamster Ovary (CHO-K1) cells were stably transfected with human GPR119 and were maintained in Ham's F-12 complete medium containing 10% heat inactivated FBS (Sigma, UK). The cells were maintained under a selection pressure with 500 μg/ml G418 (GENETICIN). Stable clones were analyzed for functional cAMP response to OEA (oleoylethanolamide).
To estimate activation of GPR119 and induction of cAMP levels by GPR119 agonists, cells were serum starvation for 18-24 h, trypsinized and seeded in 96 well plates at a, density of 7500 cells/well. The cells were then treated with test compounds diluted in serum free Ham's F12 for 1 h at 37° C. The cAMP levels were measured by using the cAMP femto kit (CisBio) by following the manufacturer's instructions. Following treatment with a test compound, the cells were lysed and cAMP levels were estimated by adding D2-labelled cAMP and europium-cryptate conjugated anti-cAMP antibody. Close proximity of D2 and cryptate results in FRET and the subsequent fluorescence that is measured at 665 and 620 nm. The FRET response is calculated as the ratio of fluorescence at 665 to fluorescence at 620 nm. The unlabelled cAMP produced as a result of GPR119 activation/agonism competes with the D2-cAMP leading to a decrease in the FRET signal. Thus the FRET signal is inversely proportional to the amount of cAMP produced by the treated cells. In a separate set of wells, known concentrations of cAMP were added in order to get a standard linear curve for extrapolation of the cAMP values in the unknown/test samples. Fluorescence was measured on BMG Labtech PHERAstar machine.
The concentration of compound required to stimulate a half-maximal response (EC50) was determined using the GraphPad Prism software.
The compounds prepared were tested using the above assay procedure and the results obtained are given below.
A general note: Cyclic AMP is a second messenger, typically raised through Gs and lowered through Gi signalling.
Regarding `CCc1cnc(N2CCC(Oc3ccc(-n4ccc5cc(C(=O)NC)ccc54)nc3)CC2)nc1` [Example-63, 1-(5-((1-(5-Ethylpyrimidin-2-yl)piperidin-4-yl)oxy)pyridin-2-yl)-N-methyl-1H-indole-5-carboxamide], the EC50 was under 50 nM.
Turning to `CCc1cnc(N2CCC(Oc3ccc(-n4ccc5cc(C(=O)NCC(F)(F)F)ccc54)nc3)CC2)nc1` [Example-88, 1-(5-((1-(5-Ethylpyrimidin-2-yl)piperidin-4-yl)oxy)pyridin-2-yl)-N-(2,2,2-trifluoroethyl)-1H-indole-5-carboxamide], the concentration giving a half-maximal response (EC50) lay in the range of 250 to 1000 nM.
On the same count and under the same terms, in the case of `CCc1cnc(N2CCC(Nc3ccc(-n4ccc5cc(C(=O)N(C)C)ccc54)nc3)CC2)nc1` [Example-22, 1-(5-((1-(5-Ethylpyrimidin-2-yl)piperidin-4-yl)amino)pyridin-2-yl)-N,N-dimethyl-1H-indole-5-carboxamide] it was under 50 nM; in that of `CN(C)C(=O)c1ccc2c(ccn2-c2ccc(OCC3CCN(C(=O)OC(C)(C)C)CC3)cn2)c1` [Example-45, tert-butyl 4-(((6-(5-(dimethylcarbamoyl)-1H-indol-1-yl)pyridin-3-yl)oxy)methyl)piperidine-1-carboxylate], < 50 nM and 50 to 250 nM.
Same read-out and setting: the same measure for `CC(C)NC(=O)c1ccc2c(ccn2-c2ccc(OC3CCN(C(=O)OC(C)(C)C)CC3)cn2)c1` [Example-62, tert-Butyl-4-((6-(5-(isopropylcarbamoyl)-1H-indol-1-yl)pyridin-3-yl)oxy) piperidine-1-carboxylate]: 50 to 250 nM; for `CCc1cnc(N2CCC(Oc3ccc(-n4ccc5cc(S(=O)(=O)CC)ccc54)nc3)CC2)nc1` [Example-11, 1-(5-((1-(5-Ethylpyrimidin-2-yl)piperidin-4-yl)oxy)pyridin-2-yl)-5-(ethylsulfonyl)-1H-indole]: under 50 nM.
The same measure, in the same setting: in the case of `Cc1noc(N2CCC(OCc3ccc(-n4ccc5cc(S(C)(=O)=O)ccc54)nc3)CC2)n1` [Example-112, 3-Methyl-5-(4-((6-(5-(methylsulfonyl)-1H-indol-1-yl)pyridin-3-yl)methoxy)piperidin-1-yl)-1,2,4-oxadiazole] it was 250 to 1000 nM; in that of `CCc1cnc(N2CCC(Oc3ccc(-n4ccc5cc(NC(=O)C(C)C)ccc54)nc3)CC2)nc1` [Example-123, N-(1-(5-((1-(5-Ethylpyrimidin-2-yl)piperidin-4-yl)oxy)pyridin-2-yl)-1H-indol-5-yl)isobutyramide], under 50 nM.
Consider `CCc1cnc(N2CCC(COc3ccc(-n4ccc5cc(C(=O)NC)ccc54)nc3)CC2)nc1` [Example-67, 1-(5-((1-(5-Ethylpyrimidin-2-yl)piperidin-4-yl)methoxy)pyridin-2-yl)-N-methyl-1H-indole-5-carboxamide], for which the EC50 was 50 to 250 nM.
For `CCOC(=O)N1CCC(Oc2ccc(-n3ccc4cc(-n5cnnn5)ccc43)nc2)CC1` [Example-187, Ethyl-4-((6-(5-(1H-tetrazol-1-yl)-1H-indol-1-yl)pyridin-3-yl)oxy)-piperidine-1-carboxylate], the EC50 is under 50 nM.
Turning to `CS(=O)(=O)c1ccc2c(ccn2-c2ccc(OC3CCN(Cc4ccc(F)cc4)CC3)cn2)c1` [Example-82, 1-(5-((1-(4-Fluorobenzyl)piperidin-4-yl)oxy)pyridin-2-yl)-5-(methylsulfonyl)-1H-indole], the EC50 was 50 to 250 nM.
As to `CCc1cnc(N2CCC(Oc3ccc(-n4ccc5cc(C(=O)N6CCCC6)ccc54)nc3)CC2)nc1` [Example-71, (1-(5-((1-(5-Ethylpyrimidin-2-yl)piperidin-4-yl)oxy)pyridin-2-yl)-1H-indol-5-yl)(pyrrolidin-1-yl)methanone], the EC50 was under 50 nM.
For `CC(C)OC(=O)N1CCC(COc2ccc(-n3ccc4cc(NC(=O)C(C)C)ccc43)nc2)CC1` [Example-126, Isopropyl 4-(((6-(5-isobutyramido-1H-indol-1-yl)pyridin-3-yl)oxy)methyl)piperidine-1-carboxylate], the EC50 is < 50 nM and 50 to 250 nM.
Same read-out and setting: the same measure for `CCc1noc(N2CCC(Oc3ccc(-n4ccc5cc(NC(=O)OC(C)C)ccc54)nc3)CC2)n1` [Example-143, Isopropyl(1-(5-((1-(3-ethyl-1,2,4-oxadiazol-5-yl)piperidin-4-yl)oxy)pyridin-2-yl)-1H-indol-5-yl)carbamate]: under 50 nM; for `CC(C)OC(=O)N1CCC(Oc2ccc(-n3ccc4cc(S(C)(=O)=O)ccc43)nc2)CC1` [Example-169, Isopropyl 4-((6-(5-(methylsulfonyl)-1H-indol-1-yl)pyridin-3-yl)oxy) piperidine-1-carboxylate]: under 50 nM.
The same measure, in the same setting: the same measure for `CCc1cnc(N2CCC(Oc3ccc(-n4ccc5cc(-n6cncn6)ccc54)nc3)CC2)nc1` [Example-190, 1-(5-((1-(5-Ethylpyrimidin-2-yl)piperidin-4-yl)oxy)pyridin-2-yl)-5-(1H-1,2,4-triazol-1-yl)-1H-indole]: under 50 nM; for `CS(=O)(=O)c1ccc2c(ccn2-c2ccc(OC3CCN(CC4(C(F)(F)F)CC4)CC3)cn2)c1` [Example-193, 5-(Methylsulfonyl)-1-(5-((1-((1-(trifluoromethyl)cyclopropyl)methyl)-piperidin-4-yl)oxy)pyridin-2-yl)-1H-indole]: under 50 nM.
Same read-out and setting: in the case of `CNC(=O)c1ccc2c(ccn2-c2ccc(OCC3CCN(C(=O)OC(C)(C)C)CC3)cn2)c1` [Example-66, tert-Butyl-4-(((6-(5-(methylcarbamoyl)-1H-indol-1-yl)pyridin-3-yl)-oxy)methyl)piperidine-1-carboxylate] it was 50 to 250 nM.
As for `CC(C)c1noc(N2CCC(Oc3ccc(-n4ccc5cc(S(C)(=O)=O)ccc54)nc3)CC2)n1` [Example-4, 3-Isopropyl-5-(4-((6-(5-(methylsulfonyl)-1H-indol-1-yl)pyridin-3-yl)oxy)piperidin-1-yl)-1,2,4-oxadiazole], the EC50 was under 50 nM.
As to `CC(C)(C)OC(=O)N1CCC(Oc2ccc(-n3ccc4cc(S(C)(=O)=O)ccc43)nc2)CC1` [Example-1, tert-Butyl-4-((6-(5-(methylsulfonyl)-1H-indol-1-yl)pyridin-3-yl)oxy) piperidine-1-carboxylate], the EC50 is under 50 nM.
For the molecule `CC(C)CN1CCC(Oc2ccc(-n3ccc4cc(S(C)(=O)=O)ccc43)nc2)CC1` [Example-30, 1-(5-((1-Isobutylpiperidin-4-yl)oxy)pyridin-2-yl)-5-(methylsulfonyl)-1H-indole], the EC50 is < 50 nM and 50 to 250 nM.
The same measure, in the same setting: in the case of `CC(C)(C)OC(=O)N1CCC(COc2ccc(-n3ccc4cc(S(C)(=O)=O)ccc43)nc2)CC1` [Example-5, tert-Butyl-4-(((6-(5-(methylsulfonyl)-1H-indol-1-yl)pyridin-3-yl)oxy)methyl)piperidine-1-carboxylate] it was under 50 nM.

Another test relates to C57 BL/6J mice. Kind of test: Oral glucose tolerance test. The note with it: blood glucose delta AUC; male C57 BL/6J mice fasted 16 h; 10 mg/kg oral gavage 30 min before glucose bolus 3 g/kg; 20-120 min. The test is classed as in vivo. The protocol:
Oral Glucose Tolerance Test:
9-10 weeks old male C57 BL/6J mice were maintained on a regular chow diet. The day of the experiment mice were fasted for 16 h and then randomized in to groups (n=7-8) based on blood glucose and bodyweight to receive vehicle (80% PEG400, 10% Tween80, 10% Ethanol) or test compounds (at 10 mg/kg). Vehicle or test compounds were delivered via oral gavage at 10 ml/kg volume. Thirty minutes later, the mice were dosed orally with a glucose bolus (3 g/kg) at 10 ml/kg volume. Blood glucose measurements were taken at 20, 40, 60 and 120 minutes after glucose administration by glucometer (CONTOUR TS, Bayer). Total AUC and Delta AUC were calculated by using graph pad prism (5.0).
Turning to `CCc1cnc(N2CCC(Oc3ccc(-n4ccc5cc(C(=O)NC)ccc54)nc3)CC2)nc1` [Example-63, 1-(5-((1-(5-Ethylpyrimidin-2-yl)piperidin-4-yl)oxy)pyridin-2-yl)-N-methyl-1H-indole-5-carboxamide], the “% reduction in delta AUC at 10 mg/kg” value is listed as 28%.
The same measure, in the same setting: the same measure for `CCOC(=O)Nc1ccc2c(ccn2-c2ccc(OC3CCN(c4nc(CC)no4)CC3)cn2)c1` [Example-142, Ethyl(1-(5-((1-(3-ethyl-1,2,4-oxadiazol-5-yl)piperidin-4-yl)oxy)pyridin-2-yl)-1H-indol-5-yl)carbamate]: 35%.

Staying with this test, now noted: blood glucose total AUC; male C57 BL/6J mice fasted 16 h; 10 mg/kg oral gavage 30 min before glucose bolus 3 g/kg; 20-120 min.
Consider `CCc1cnc(N2CCC(Oc3ccc(-n4ccc5cc(C(=O)NC)ccc54)nc3)CC2)nc1` [Example-63, 1-(5-((1-(5-Ethylpyrimidin-2-yl)piperidin-4-yl)oxy)pyridin-2-yl)-N-methyl-1H-indole-5-carboxamide], for which the “% reduction in total AUC at 10 mg/kg” value turned out to be 19%.
The same measure, in the same setting: in the case of `CCOC(=O)Nc1ccc2c(ccn2-c2ccc(OC3CCN(c4nc(CC)no4)CC3)cn2)c1` [Example-142, Ethyl(1-(5-((1-(3-ethyl-1,2,4-oxadiazol-5-yl)piperidin-4-yl)oxy)pyridin-2-yl)-1H-indol-5-yl)carbamate] it was 20%.
